According to patent US7030107B2, “Fused bicyclic pyridine derivatives as tachykinin receptor antagonists” (Kyorin Pharmaceutical.Co., Ltd., priority 2001, dated 2006):

Key:
[1] = biological target: T1, NK1 receptor (Cavia porcellus, UniProt P30547); assay: Test for NK1 receptor antagonist: substance P concentration-response in isolated guinea pig ileum, Schild analysis; format: cell-based; settings: antagonism of substance P, 10 min pretreatment, Schild method
T1 construct: from tissue; host or cells: isolated guinea pig ileum
Method: (1) Test for NK1 Receptor Antagonist
The method used was according to the method proposed by S. Dion et al. (Dion et al., Life Sciences 41 (1987): 2269), to which minor modifications were made.
Guinea pigs were stunned by a blow on the head and were exsanguinated from the carotid artery and ileum was isolated. The ileum was mounted in an organ bath containing Tyrode's solution which was maintained at 32° C. and gased with 95% O2 and 5% CO2. The ileum was subjected to a resting tension of 1-gram and allowed to equilibrate for 20 minutes before the experiment was started. As a control, a concentration-response curve for substance P obtained in the absence of test compounds was used. The NK1 receptor antagonist activity of each test compound was determined by a concentration-response curve obtained by pretreating at least three concentrations of the test compound for 10 minutes and subsequently applying substance P in a cumulative manner. The Kb values were determined according to the method proposed by Schild and the results are shown in Table 1 (Schild Brit. J. Pharmacol. 14 (1959): 49).
The composition of the Tyrode's solution was as follows: NaCl=136.9, KCl=2.7, CaCl2.2H2O=2.5, MgCl2.6H2O=1.0, NaH2PO4.2H2O=0.4, NaHCO3=11.9, glucose=11.1 (mmol/L)

[2] = test system: Guinea pigs; assay: Cystometry test on guinea pigs with cut spinal cord (effective bladder capacity); format: in vivo; settings: guinea pig
Description: (2) Cystometry Test on Guinea Pigs
The method used was according to the method proposed by J S. Peterson et al. (Peterson J S. et al., J. Pharmacol. Methods 21 (1989): 231), to which minor modifications were made.
Guinea pigs were anesthetized with halothane and the tenth thoracic spinal cord was cut in each animal. Subsequently, both ureters were ligated and were cut on the kidney-side. Polyethylene catheters were inserted into the bladder to provide an injection pathway for physiological saline and a pathway for the measurement of intravesical pressure. Each animal was restricted in a Ballman cage and was left for more than 2 hours. Subsequently, room-temperature saline was injected through the bladder catheter into the bladder at a rate of 6 mL/hr to conduct a cystometry test. After the effective bladder capacity was stabilized, a test compound was intravenously administered from the jugular vein. The effective bladder capacity is defined as the volume of saline injected from one urination to the next. The effect of each test compound was determined as the increase in the average bladder volume, which was determined by taking difference between the average bladder volume measured 30 minutes prior to the administration of the test compound and the average bladder volume measured every 30 minutes after the administration of the test compound.

T1 sequence (P30547 whole entry): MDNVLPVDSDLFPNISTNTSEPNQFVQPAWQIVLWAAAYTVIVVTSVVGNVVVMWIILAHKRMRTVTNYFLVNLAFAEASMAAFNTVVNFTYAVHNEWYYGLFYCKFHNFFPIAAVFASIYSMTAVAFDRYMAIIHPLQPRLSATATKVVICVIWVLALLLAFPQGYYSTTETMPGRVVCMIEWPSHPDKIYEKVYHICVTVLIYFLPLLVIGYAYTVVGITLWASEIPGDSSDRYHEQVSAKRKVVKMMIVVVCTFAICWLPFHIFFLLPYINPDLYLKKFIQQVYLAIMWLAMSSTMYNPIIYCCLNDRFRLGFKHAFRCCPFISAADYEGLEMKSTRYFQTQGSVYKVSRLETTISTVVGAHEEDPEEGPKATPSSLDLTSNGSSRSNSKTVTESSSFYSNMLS

For `O=C1c2c(-c3ccccc3)cc(N3CCC(N4CCCC4)CC3)nc2OCCCN1Cc1cc(C(F)(F)F)cc(C(F)(F)F)c1` [Example 1, 5-[3,5-bis(trifluoromethyl)benzyl]-6-oxo-7-phenyl-9-[4-(pyrrolidine-1-yl)piperidine-1-yl]-2,3,4,5-tetrahydro-6H-pyrido[2,3-b][1,5]oxazocine], the Kb [1] was 0.224 nM.

`O=C1c2c(-c3ccc(F)cc3)cc(N3CCC(N4CCCC4)CC3)nc2OCCCN1Cc1cc(C(F)(F)F)cc(C(F)(F)F)c1` [Example 4, 5-[3,5-bis(trifluoromethyl)benzyl]-7-(4-fluorophenyl)-6-oxo-9-[4-(pyrrolidine-1-yl)piperidine-1-yl]-2,3,4,5-tetrahydro-6H-pyrido[2,3-b][1,5]oxazocine] gave a Kb [1] of 0.148 nM.

In the case of `Cc1ccccc1-c1cc(N2CCC(N3CCCC3)CC2)nc2c1C(=O)N(Cc1cc(C(F)(F)F)cc(C(F)(F)F)c1)CCCO2` [Example 7, 5-[3,5-bis(trifluoromethyl)benzyl]-7-(2-methylphenyl)-6-oxo-9-[4-(pyrrolidine-1-yl)piperidine-1-yl]-2,3,4,5-tetrahydro-6H-pyrido[2,3-b][1,5]oxazocine], the Kb [1] is reported as 0.21 nM, the “Increase in bladder capacity” value ([2]; 0.3 mg/kg i.v.) is reported as 24.2% and the “Increase in bladder capacity” value ([2]; 1 mg/kg i.v.) is reported as 46.0%.

For `Cc1ccccc1-c1cc(N2CCC(N(C)C)CC2)nc2c1C(=O)N(Cc1cc(C(F)(F)F)cc(C(F)(F)F)c1)CCCO2` [Example 8, 5-[3,5-bis(trifluoromethyl)benzyl]-9-[4-(dimethylamino)piperidine-1-yl]-7-(2-methylphenyl)-6-oxo-2,3,4,5-tetrahydro-6H-pyrido[2,3-b][1,5]oxazocine], the Kb [1] was 0.275 nM.

Molecule `Cc1ccccc1-c1cc(N2CCC(N3CCOCC3)CC2)nc2c1C(=O)N(Cc1cc(C(F)(F)F)cc(C(F)(F)F)c1)CCCO2` [Example 9, 5-[3,5-bis(trifluoromethyl)benzyl]-7-(2-methylphenyl)-9-[4-(morpholine-4-yl)piperidine-1-yl]-6-oxo-2,3,4,5-tetrahydro-6H-pyrido[2,3-b][1,5]oxazocine] has a Kb [1] of 0.0848 nM.

With `Cc1ccccc1-c1cc(N2CCC(N3CCCC3=O)CC2)nc2c1C(=O)N(Cc1cc(C(F)(F)F)cc(C(F)(F)F)c1)CCCO2` [Example 10, 5-[3,5-bis(trifluoromethyl)benzyl]-7-(2-methylphenyl)-6-oxo-9-[4-(2-oxopyrrolidine-1-yl)piperidine-1-yl]-2,3,4,5-tetrahydro-6H-pyrido[2,3-b][1,5]oxazocine] the Kb [1] was 0.286 nM.

With `CC(=O)NC1CCN(c2cc(-c3ccccc3C)c3c(n2)OCCCN(Cc2cc(C(F)(F)F)cc(C(F)(F)F)c2)C3=O)CC1` [Example 13, 9-[4-(acetylamino)piperidine-1-yl]-5-[3,5-bis(trifluoromethyl)benzyl]-7-(2-methylphenyl)-6-oxo-2,3,4,5-tetrahydro-6H-pyrido[2,3-b][1,5]oxazocine] the Kb [1] was 0.17 nM.

`Cc1ccc(-c2c3n(c(=O)c4ncccc24)CC[C@@H](C)CN(Cc2cc(C(F)(F)F)cc(C(F)(F)F)c2)C3=O)cc1` [TAK-637] was tested, and the “Increase in bladder capacity” value ([2]; 0.3 mg/kg i.v.) was 12.0%, the “Increase in bladder capacity” value ([2]; 1 mg/kg i.v.) was 23.8% and the “Increase in bladder capacity” value ([2]; 3 mg/kg i.v.) was 20.5%.
